For test [1], the system named is A549. The test can be described thus: Cytotoxicity against human A549 cells assessed as cell growth inhibition measured after 24 hrs by MTT assay. The test is classed as functional, cell-based. To be noted: A549, 24 h. For orientation: Tetrazolium dyes change colour on reduction, which living cells bring about.
For test [2], the system named is MCF7. Briefly: Cytotoxicity against human MCF7 cells assessed as cell growth inhibition measured after 24 hrs by MTT assay. Format: functional, cell-based. Conditions: MCF7, 24 h.
Test [3] has as its system HepG2. The test can be described thus: Cytotoxicity against human HepG2 cells assessed as cell growth inhibition measured after 24 hrs by MTT assay. The test is classed as functional, cell-based. Conditions: HepG2, 24 h.
Test [4] relates to L02. The test can be described thus: Cytotoxicity against human L02 cells assessed as cell growth inhibition measured after 24 hrs by MTT assay. Format: cell-based. Conditions: L02, 24 h.

This note sets out measurements from ChEMBL document CHEMBL4811221, “Diosgenin Derivatives as Potential Antitumor Agents: Synthesis, Cytotoxicity, and Mechanism of Action” (J Nat Prod, 2021).

In the case of `C[C@@H]1CC[C@@]2(OC1)O[C@H]1C[C@H]3[C@@H]4CC=C5C[C@@H](OC(=O)c6ccccc6C(=O)N6CCNCC6)CC[C@]5(C)[C@H]4CC[C@]3(C)[C@H]1[C@@H]2C`, the IC50 in test [1] amounted to 7.2 µM; in test [2] it was 8.1 µM; in test [3], 7.5 µM; in test [4], 27.8 µM.
For `Cc1ccc(S(=O)(=O)N2CCN(C(=O)CCC(=O)O[C@H]3CC[C@@]4(C)C(=CC[C@H]5[C@@H]6C[C@@H]7O[C@]8(CC[C@@H](C)CO8)[C@@H](C)[C@@H]7[C@@]6(C)CC[C@@H]54)C3)CC2)cc1`, the IC50 is 4.7 µM in test [1], > 10 µM in test [2] and > 10 µM in test [3].
As for `C[C@@H]1CC[C@@]2(OC1)O[C@H]1C[C@H]3[C@@H]4CC=C5C[C@@H](OC(=O)/C=C\C(=O)N6CCNCC6)CC[C@]5(C)[C@H]4CC[C@]3(C)[C@H]1[C@@H]2C`, the IC50 is 2.3 µM in test [2], > 10 µM in test [3] and 39.1 µM in test [4].
For `C[C@@H]1CC[C@@]2(OC1)O[C@H]1C[C@H]3[C@@H]4CC=C5C[C@@H](OC(=O)CCC(=O)N6CC[N+](Cc7ccc(C(C)(C)C)cc7)(Cc7ccc(C(C)(C)C)cc7)CC6)CC[C@]5(C)[C@H]4CC[C@]3(C)[C@H]1[C@@H]2C`, the IC50 came to 3 µM in test [1], 6 µM in test [2], 6.7 µM in test [3] and 21.2 µM in test [4].
On to `C[C@@H]1CC[C@@]2(OC1)O[C@H]1C[C@H]3[C@@H]4CC=C5C[C@@H](OC(=O)CCC(=O)N6CCN(S(=O)(=O)c7ccc(F)cc7)CC6)CC[C@]5(C)[C@H]4CC[C@]3(C)[C@H]1[C@@H]2C`, for which the figures for the IC50 in test [1], in test [2] and in test [3] were 3.7 µM, > 10 µM and > 10 µM, respectively.
On to `C[C@@H]1CC[C@@]2(OC1)O[C@H]1C[C@H]3[C@@H]4CC=C5C[C@@H](OC(=O)CCC(=O)N6CCc7ccccc7C6)CC[C@]5(C)[C@H]4CC[C@]3(C)[C@H]1[C@@H]2C`, for which the 50% inhibitory concentration (IC50) in test [2] and in test [3] was > 10 µM in each case.
As for `CCN(CC)C(=O)CCC(=O)O[C@H]1CC[C@@]2(C)C(=CC[C@H]3[C@@H]4C[C@@H]5O[C@]6(CC[C@@H](C)CO6)[C@@H](C)[C@@H]5[C@@]4(C)CC[C@@H]32)C1`, the half-maximal inhibitory concentration (IC50) in test [1] is 4.5 µM; in test [2], > 10 µM; in test [3] it was > 10 µM.
As for `C[C@@H]1CC[C@@]2(OC1)O[C@H]1C[C@H]3[C@@H]4CC=C5C[C@@H](OC(=O)c6ccccc6C(=O)N6CCOCC6)CC[C@]5(C)[C@H]4CC[C@]3(C)[C@H]1[C@@H]2C`, the IC50 in test [2] and in test [3] was > 10 µM throughout.
As to `C[C@@H]1CC[C@@]2(OC1)O[C@H]1C[C@H]3[C@@H]4CC=C5C[C@@H](O)CC[C@]5(C)[C@H]4CC[C@]3(C)[C@H]1[C@@H]2C` [DISOGENIN], the IC50 in test [1], in test [2] and in test [3] was > 10 µM in each case.
As to `C[C@@H]1CC[C@@]2(OC1)O[C@H]1C[C@H]3[C@@H]4CC=C5C[C@@H](OC(=O)c6ccccc6C(=O)N6CCCC6)CC[C@]5(C)[C@H]4CC[C@]3(C)[C@H]1[C@@H]2C`, the IC50 in test [2] and in test [3] was > 10 µM in each case.
In the case of `C[C@@H]1CC[C@@]2(OC1)O[C@H]1C[C@H]3[C@@H]4CC=C5C[C@@H](OC(=O)CCC(=O)N6CCCC6)CC[C@]5(C)[C@H]4CC[C@]3(C)[C@H]1[C@@H]2C`, the IC50 in test [2] and in test [3] was > 10 µM each time.
Turning to `C[C@@H]1CC[C@@]2(OC1)O[C@H]1C[C@H]3[C@@H]4CC=C5C[C@@H](OC(=O)CCC(=O)N6CCN(S(=O)(=O)C7CC7)CC6)CC[C@]5(C)[C@H]4CC[C@]3(C)[C@H]1[C@@H]2C`, the 50% inhibitory concentration (IC50) in test [1] is 4.2 µM; in test [2], > 10 µM; in test [3], > 10 µM.
For `C[C@@H]1CC[C@@]2(OC1)O[C@H]1C[C@H]3[C@@H]4CC=C5C[C@@H](OC(=O)CCCC(=O)N6CCCC6)CC[C@]5(C)[C@H]4CC[C@]3(C)[C@H]1[C@@H]2C`, the IC50 in test [1] was 5.6 µM; in test [2], > 10 µM; in test [3], 8.3 µM.
`C[C@@H]1CC[C@@]2(OC1)O[C@H]1C[C@H]3[C@@H]4CC=C5C[C@@H](OC(=O)/C=C\C(=O)N6CCCC6)CC[C@]5(C)[C@H]4CC[C@]3(C)[C@H]1[C@@H]2C`: the IC50 in test [2] and in test [3] was > 10 µM throughout.
`CCS(=O)(=O)N1CCN(C(=O)CCC(=O)O[C@H]2CC[C@@]3(C)C(=CC[C@H]4[C@@H]5C[C@@H]6O[C@]7(CC[C@@H](C)CO7)[C@@H](C)[C@@H]6[C@@]5(C)CC[C@@H]43)C2)CC1`: the IC50 was 6.2 µM in test [1], > 10 µM in test [2] and > 10 µM in test [3].
For `C=CS(=O)(=O)N1CCN(C(=O)CCC(=O)O[C@H]2CC[C@@]3(C)C(=CC[C@H]4[C@@H]5C[C@@H]6O[C@]7(CC[C@@H](C)CO7)[C@@H](C)[C@@H]6[C@@]5(C)CC[C@@H]43)C2)CC1`, the concentration for half-maximal inhibition (IC50) in test [1] is 4.1 µM; in test [2], > 10 µM; in test [3], 5.1 µM; in test [4], 23.6 µM.
In the same order, the values of `COc1ccc(C[N+]2(Cc3ccc(OC)cc3)CCN(C(=O)CCC(=O)O[C@H]3CC[C@@]4(C)C(=CC[C@H]5[C@@H]6C[C@@H]7O[C@]8(CC[C@@H](C)CO8)[C@@H](C)[C@@H]7[C@@]6(C)CC[C@@H]54)C3)CC2)cc1` are 5.7 µM, 9.3 µM, 9.9 µM and 23.3 µM.
For the compound `C[C@@H]1CC[C@@]2(OC1)O[C@H]1C[C@H]3[C@@H]4CC=C5C[C@@H](OC(=O)CCC(=O)N6CCN(S(=O)(=O)c7ccccc7)CC6)CC[C@]5(C)[C@H]4CC[C@]3(C)[C@H]1[C@@H]2C`, the values for the half-inhibitory concentration (IC50) in test [1], in test [2] and in test [3] were 8.7 µM, > 10 µM and > 10 µM, respectively.
In the case of `C[C@@H]1CC[C@@]2(OC1)O[C@H]1C[C@H]3[C@@H]4CC=C5C[C@@H](OC(=O)CCC(=O)N6CCN(S(=O)(=O)O)CC6)CC[C@]5(C)[C@H]4CC[C@]3(C)[C@H]1[C@@H]2C`, the IC50 in test [2] and in test [3] was > 10 µM throughout.
For `C[C@@H]1CC[C@@]2(OC1)O[C@H]1C[C@H]3[C@@H]4CC=C5C[C@@H](OC(=O)CCC(=O)N6CC[N+](Cc7ccc(Cl)cc7)(Cc7ccc(Cl)cc7)CC6)CC[C@]5(C)[C@H]4CC[C@]3(C)[C@H]1[C@@H]2C`, the half-inhibitory concentration (IC50) is 5.4 µM in test [1], > 10 µM in test [2] and > 10 µM in test [3].
`C[C@@H]1CC[C@@]2(OC1)O[C@H]1C[C@H]3[C@@H]4CC=C5C[C@@H](OC(=O)CCCC(=O)N6CCNCC6)CC[C@]5(C)[C@H]4CC[C@]3(C)[C@H]1[C@@H]2C`: the IC50 in test [1] worked out at 3.2 µM; in test [2], 6 µM; in test [3], 2 µM; in test [4] it was 14.8 µM.
As for `C[C@@H]1CC[C@@]2(OC1)O[C@H]1C[C@H]3[C@@H]4CC=C5C[C@@H](OC(=O)/C=C\C(=O)N6CCc7ccccc7C6)CC[C@]5(C)[C@H]4CC[C@]3(C)[C@H]1[C@@H]2C`, the half-inhibitory concentration (IC50) in test [1] was 7.6 µM.
For `C[C@@H]1CC[C@@]2(OC1)O[C@H]1C[C@H]3[C@@H]4CC=C5C[C@@H](OC(=O)/C=C\C(=O)N6CCOCC6)CC[C@]5(C)[C@H]4CC[C@]3(C)[C@H]1[C@@H]2C`, the IC50 in test [1] was 5.5 µM; in test [2], > 10 µM; in test [3] it was > 10 µM.
As to `CC(=O)O[C@H]1C(=O)[C@@]2(C)[C@H]([C@H](OC(=O)c3ccccc3)[C@]3(O)C[C@H](OC(=O)[C@H](O)[C@@H](NC(=O)c4ccccc4)c4ccccc4)C(C)=C1C3(C)C)[C@]1(OC(C)=O)CO[C@@H]1C[C@@H]2O` [PACLITAXEL], the IC50 in test [1] is 5.4 µM; in test [4] it was > 100 µM.
`C[C@@H]1CC[C@@]2(OC1)O[C@H]1C[C@H]3[C@@H]4CC=C5C[C@@H](OC(=O)CCCC(=O)N6CCOCC6)CC[C@]5(C)[C@H]4CC[C@]3(C)[C@H]1[C@@H]2C`: the 50% inhibitory concentration (IC50) in test [1] was 8.6 µM; in test [2], > 10 µM; in test [3], > 10 µM.
For `CCN(CC)C(=O)c1ccccc1C(=O)O[C@H]1CC[C@@]2(C)C(=CC[C@H]3[C@@H]4C[C@@H]5O[C@]6(CC[C@@H](C)CO6)[C@@H](C)[C@@H]5[C@@]4(C)CC[C@@H]32)C1`, the IC50 in test [2] and in test [3] was > 10 µM each time.
In the case of `CCN(CC)C(=O)/C=C\C(=O)O[C@H]1CC[C@@]2(C)C(=CC[C@H]3[C@@H]4C[C@@H]5O[C@]6(CC[C@@H](C)CO6)[C@@H](C)[C@@H]5[C@@]4(C)CC[C@@H]32)C1`, the values for the half-inhibitory concentration (IC50) in test [1], in test [2] and in test [3] were 7.1 µM, > 10 µM and > 10 µM, respectively.
On to `CCN(CC)C(=O)CCCC(=O)O[C@H]1CC[C@@]2(C)C(=CC[C@H]3[C@@H]4C[C@@H]5O[C@]6(CC[C@@H](C)CO6)[C@@H](C)[C@@H]5[C@@]4(C)CC[C@@H]32)C1`, for which the IC50 was 7.4 µM in test [1], > 10 µM in test [2] and > 10 µM in test [3].
For `C[C@@H]1CC[C@@]2(OC1)O[C@H]1C[C@H]3[C@@H]4CC=C5C[C@@H](OC(=O)CCCC(=O)N6CCc7ccccc7C6)CC[C@]5(C)[C@H]4CC[C@]3(C)[C@H]1[C@@H]2C`, the IC50 in test [2] and in test [3] was > 10 µM throughout.
Consider `C[C@@H]1CC[C@@]2(OC1)O[C@H]1C[C@H]3[C@@H]4CC=C5C[C@@H](OC(=O)c6ccccc6C(=O)N6CCc7ccccc7C6)CC[C@]5(C)[C@H]4CC[C@]3(C)[C@H]1[C@@H]2C`, for which the IC50 in test [2] and in test [3] was > 10 µM each time.

In general, IC50 refers to the concentration that gives 50% inhibition.
